In patent US8557737B2, “Methods of altering poppy characteristics” (priority 2005, dated 2013):

Assays:
Type in all cases: in vivo, Papaver somniferum
[1] = tested on: poppy crops; assay: Example 10: field trial, triasulfuron and metsulfuron-methyl, morphine crop
Description: (§1) All trials were conducted on poppy crops. Seed was treated with Thiram (5.6 g of Thiram 800/kg seed) and Apron (4 g/kg) and sown at a rate of approximately 750 g/ha. Fertilisers were applied at sowing. Most commonly, either 50:50 lime:superphosphate/triple superphosphate at 125 kg/ha, or lime:superphosphate at 250 kg/ha, were mixed with seed and drilled at a depth of 15 mm. In the same operation, NPK (nitrogen:phosphorus:potassium), at various rates, was banded 75 mm below the seed, unless otherwise stated. All crops were subjected to herbicide sprays for weed control, fungicide sprays for disease control, insecticide sprays if appropriate and were irrigated as required.
(§2) All spray applications were made with a precision sprayer, using Silvan Lurmark flat-fan, low-drift nozzles (LD110-0015). Spray equipment was calibrated to deliver 153 L water/ha.
(§3) At harvest, a 2 m×4 m quadrat was placed in each plot (3 m×6 m, unless otherwise stated) and capsules hand-picked from this area. Capsules were broken up, seed and capsule material separated and weighed. Capsule moisture readings were taken with a moisture meter. Alkaloid yield data were calculated on Pesticide Research Manager (version 5 for Windows) using the formulae below. Briefly, capsule weight was adjusted for moisture to a dry weight, 5% of seed weight was added to this (this amount of capsule material regularly occurs in seed samples after processing) to give a capsule weight per plot. Seed weight was adjusted to 95% of crude weight. Straw weights were determined by multiplying dry capsule weight by 1.3 (estimated amount of stem material in a commercial harvest) and adjusted to 11% moisture. When Lontrel was applied to crops exact capsule and seed weight data were entered. Analyses of variance and a Multiple Range Test were performed on data using Pesticide Research Manager. Significant differences (P=0.05) between treatments are denoted by different lower case letters adjacent to treatment means in the tables of results.
[…] Treatment sprays were applied to crop at ground cover, mid run-up and bud-emergence, respectively.

[2] = tested on: poppy crops; assay: Example 16: field trial, metsulfuron-methyl, mesosulfuron-methyl and triasulfuron at row cover and ground cover/early run-up, morphine crop; details: for PLANT HEIGHT: 5 weeks after last application
Description: as §1, §2
as §3, with “Manager.” for “Manager. Significant differences (P=0.05) between treatments are denoted by different lower case letters adjacent to treatment means in the tables of results.”
Trial to evaluate applications of metsulfuron-methyl (Compound 1), mesosulfuron-methyl (Compound 2) and triasulfuron (Compound 3), in a morphine crop. Treatment sprays were applied to crop at row cover and ground cover/early run-up, respectively. Plant heights were assessed 5 weeks after last application and lodging was assessed at capsule harvest.

[3] = tested on: poppy crops; assay: Example 17: field trial, triasulfuron, mesosulfuron-methyl and metsulfuron-methyl at early run-up and mid-late run-up, morphine crop; details: for PLANT HEIGHT: 6 weeks after last application; for LODGING: at capsule harvest
Description: as §1, §2
as §3, with “Manager.” for “Manager. Significant differences (P=0.05) between treatments are denoted by different lower case letters adjacent to treatment means in the tables of results.”
Trial to evaluate applications of triasulfuron, mesosulfuron-methyl and metsulfuron-methyl, in a morphine crop. Treatment sprays were applied to with crop at early run-up and mid-late run-up, respectively. Plant heights were measured on 6 weeks after last application and lodging was assessed at capsule harvest.

[4] = tested on: poppy crops; assay: Example 18: field trial, triasulfuron, mesosulfuron-methyl and metsulfuron-methyl at row cover, mid run-up and early hook, morphine crop; details: MRU and LRU; for PLANT HEIGHT: 5 weeks after last application; for LODGING: at capsule harvest
Description: as §1, §2
as §3, with “Manager.” for “Manager. Significant differences (P=0.05) between treatments are denoted by different lower case letters adjacent to treatment means in the tables of results.”
Trial to evaluate applications of triasulfuron, mesosulfuron-methyl and metsulfuron-methyl, in a morphine crop. […] Plant heights were measured 5 weeks after last application and lodging at capsule harvest.

[5] = tested on: poppy crops; assay: Example 19: field trial, sulfosulfuron, thifensulfuron-methyl and metsulfuron-methyl, morphine crop; details: applied at M-LRU and LRU-BE; for PLANT HEIGHT: measured some 10 weeks after last application
Description: as §1, §2
as §3, with “Manager.” for “Manager. Significant differences (P=0.05) between treatments are denoted by different lower case letters adjacent to treatment means in the tables of results.”
Trial to evaluate applications of sulfosulfuron, thifensulfuron-methyl and metsulfuron-methyl, in a morphine crop. Treatment sprays were applied to crop at mid-late run-up and late-run-up/bud-emergence, respectively. Plant heights were measured some 10 weeks after the last application. Lodging was assessed at capsule harvest.

[6] = COMPOUND 3 263 MG/HA + PULSE .2 % V/V at GC and RU
[7] = COMPOUND 3 525 MG/HA + PULSE .2 % V/V at GC (one application)
[8] = COMPOUND 3 525 MG/HA + PULSE .2 % V/V at GC and RU
[9] = Trt 3: COMPOUND 3 75 MG/HA + PULSE .2% V/V at RC and GC/ERU
[10] = Trt 4: COMPOUND 3 150 MG/HA + PULSE .2% V/V at RC and GC/ERU
[11] = Trt 3: COMPOUND 3 75 MG/HA + PULSE .2% V/V at ERU and M-LRU
[12] = Trt 4: COMPOUND 3 150 MG/HA + PULSE .2% V/V at ERU and M-LRU
[13] = Trt 3: COMPOUND 3 75 MG/HA + PULSE .2% V/V at RC
[14] = Trt 4: COMPOUND 3 150 MG/HA + PULSE .2% V/V at RC
[15] = 1.35 G/HA + ACTIVATOR .125 % V/V
[16] = 4.5 G/HA + ACTIVATOR .125 % V/V
[17] = 450 MG/HA + ACTIVATOR .125 % V/V

## COc1nc(C)nc(NC(=O)NS(=O)(=O)c2ccccc2OCCCl)n1 [Compound 3, triasulfuron]
[1]; [6]
  CAPSULE/SEED RATIO: 3.170 b
  CROP WEIGHT: 0.79 d t/ha
  HEIGHT: 71.0 cm·days
  MORPHINE: 13.17 d kg/ha
  SEED: 141 c kg/ha
  STRAW: 644 d kg/ha
  STRAW MORPHINE: 2.03 b %
[1]; [7]
  CAPSULE/SEED RATIO: 1.762 c
  CROP WEIGHT: 1.40 c t/ha
  HEIGHT: 75.6 c cm
  MORPHINE: 20.55 b kg/ha
  SEED: 408 b kg/ha
  STRAW: 992 b kg/ha
  STRAW MORPHINE: 2.06 b %
[1]; [8]
  CAPSULE/SEED RATIO: 1.338 days
  CROP WEIGHT: 0.17 e t/ha
  HEIGHT: 55.0 e cm
  MORPHINE: 1.99 e kg/ha
  SEED: 60 c kg/ha
  STRAW: 113 e kg/ha
  STRAW MORPHINE: 1.76 c %
[2]; [9]
  CAPS/SEED RATIO: 1.259 b
  CROP WEIGHT: 3.47 b t/ha
  MORPHINE: 49.16 a kg/ha
  SEED: 1233 c kg/ha
  STRAW: 2211 a kg/ha
  STRAW MORPHINE: 2.21 a %
  PLANT HEIGHT: 103.4 b cm
[2]; [10]
  CAPS/SEED RATIO: 1.959 a
  CROP WEIGHT: 2.18 c t/ha
  MORPHINE: 32.34 c kg/ha
  SEED: 581 d kg/ha
  STRAW: 1589 c kg/ha
  STRAW MORPHINE: 2.03 b %
  PLANT HEIGHT: 88.6 c cm
[3]; [11]
  CAPS/SEED RATIO: 3.677 c
  CROP WEIGHT: 2.79 b t/ha
  MORPHINE: 51.94 a kg/ha
  SEED: 451 b kg/ha
  STRAW: 2299 a kg/ha
  STRAW MORPHINE: 2.26 b %
  PLANT HEIGHT: 100.2 bc cm
  LODGING: 1.6 b %
[3]; [12]
  CAPS/SEED RATIO: 6.016 b
  CROP WEIGHT: 1.71 c t/ha
  MORPHINE: 25.78 c kg/ha
  SEED: 175 c kg/ha
  STRAW: 1331 c kg/ha
  STRAW MORPHINE: 1.93 d %
  PLANT HEIGHT: 90.4 cm·days
  LODGING: 11.9 a %
[4]; [13]
  CAPS/SEED RATIO: 1.358 b
  CROP WEIGHT: 3.43 a t/ha
  MORPHINE: 51.88 a kg/ha
  SEED: 1161 b kg/ha
  STRAW: 2217 a kg/ha
  STRAW MORPHINE: 2.33 a %
  PLANT HEIGHT: 93.0 c cm
  LODGING: 2.2 a %
[4]; [14]
  CAPS/SEED RATIO: 2.664 a
  CROP WEIGHT: 2.32 c t/ha
  MORPHINE: 37.62 c kg/ha
  SEED: 482 c kg/ha
  STRAW: 1797 b kg/ha
  STRAW MORPHINE: 2.09 c %
  PLANT HEIGHT: 81.4 cm·days
  LODGING: 2.6 a %

## CCS(=O)(=O)c1nc2ccccn2c1S(=O)(=O)NC(=O)Nc1nc(OC)cc(OC)n1 [Compound 5, sulfosulfuron]
[5]; 60 MG/HA + SWIFT 1 % V/V
  CAPSULE/SEED RATIO: 2.324
  CROP WEIGHT: .96 t/ha
  MORPHINE: 19.19 kg/ha
  SEED: 220 kg/ha
  STRAW: 738 kg/ha
  STRAW MORPHINE %: 2.6%
  PLANT HEIGHT: 73 cm
[5]; 180 MG/HA + SWIFT 1 % V/V
  CAPSULE/SEED RATIO: 2.898
  CROP WEIGHT: 1.15 t/ha
  MORPHINE: 22.90 kg/ha
  SEED: 223 kg/ha
  STRAW: 931 kg/ha
  STRAW MORPHINE %: 2.46%
  PLANT HEIGHT: 75 cm
[5]; 600 MG/HA + SWIFT 1 % V/V
  CAPSULE/SEED RATIO: 4.564
  CROP WEIGHT: 0.89 t/ha
  MORPHINE: 20.74 kg/ha
  SEED: 118 kg/ha
  STRAW: 774 kg/ha
  STRAW MORPHINE %: 2.68%
  PLANT HEIGHT: 80 cm

## COC(=O)c1sccc1S(=O)(=O)NC(=O)Nc1nc(C)nc(OC)n1 [Compound 4, thifensulfuron-methyl]
[5]; [15]
  CAPSULE/SEED RATIO: 3.299
  CROP WEIGHT: 0.22 t/ha
  MORPHINE: 4.10 kg/ha
  SEED: 39 kg/ha
  STRAW: 184 kg/ha
  STRAW MORPHINE %: 2.23%
  PLANT HEIGHT: 65 cm
[5]; [16]
  CAPSULE/SEED RATIO: 0
  CROP WEIGHT: 0 t/ha
  MORPHINE: 0 kg/ha
  SEED: 0 kg/ha
  STRAW: 0 kg/ha
  STRAW MORPHINE %: 0%
  PLANT HEIGHT: 0 cm
[5]; [17]
  CAPSULE/SEED RATIO: 5.209
  CROP WEIGHT: 0.87 t/ha
  MORPHINE: 16.19 kg/ha
  SEED: 103 kg/ha
  STRAW: 771 kg/ha
  STRAW MORPHINE %: 2.10%
  PLANT HEIGHT: 78 cm
